From a melting point compilation (Tetko et al.; mined from patent text by program, amines drawn as free bases though some values may be those of a salt)

Row | melting point [°C] | Compound
1 | 224 | Cc1ccc(-c2nc(N)ncc2-c2ccc(=O)n(C(C)C)n2)cc1
2 | 251 to 253 | COc1cc(OC)c2c(=O)[nH]c(-c3cccc(N4CCN(C(C)C)CC4)c3)nc2c1
3 | 139 to 143 | COc1ccc2c(c1)CCC1C2=CCC2(C)C(=O)CCC12 (configuration not stated)
4 | 136 to 142 | CCOC(=O)C(=NOC)c1nc(N)cc(Cl)n1
5 | 146 | COC1(c2csc(Sc3ccc(/C(C)=N/O)cc3)n2)CCOCC1
6 | 105 | Cc1cc(Cl)ccc1Oc1cccc(-c2ncccn2)n1
7 | 150 to 151 | CN(C)C(=O)C(N)=NNc1ccc(Cl)cc1C(=O)c1ccccc1Cl
8 | 137 to 139 | COc1ccc(C2CC(=O)C(C(=O)O)=CN2C2CC2)cc1 (configuration not stated)
9 | 281 to 283 | CSc1c(C2=C(c3cn(C)c4ccccc34)C(=O)NC2=O)c2ccccc2n1C
10 | 113 to 115 | COc1ccccc1C1(C(C)C)C(=O)N(C)c2ccccc21 (configuration not stated)
11 | 99 to 101 | COC(=O)C(CCS(N)(=O)=O)c1ccc([N+](=O)[O-])cc1F (configuration not stated)
12 | 285 to 286 | Cc1ccc2ncn(-c3nnn[nH]3)c(=O)c2c1
13 | 80 to 81 | CON(C)C(=O)c1cc(Br)ccc1N
14 | 219 to 221 | CCCc1nc(Nc2ccc3cn[nH]c3c2)nc(NC2CCN(S(C)(=O)=O)CC2)n1
15 | 166 to 167 | CCOC(=O)C1=C(C)NC(c2nccn2C)=NC1c1ccc(F)cc1Cl (configuration not stated)
16 | > 300 | C[C@H](NC(=O)c1c[nH]c2ncc(-c3cn(-c4cc(C(F)(F)F)ccc4F)cn3)nc12)C(C)(C)C
17 | 258 to 260 | O=CNc1nc(S(=O)(=O)Nc2c(F)cccc2F)n[nH]1
18 | 107 to 110 | Cn1cc(-c2cccc(Cl)c2)c(=O)c(-c2ccc(Cl)c(Cl)c2)c1

Row | melting point [°C] | Compound
19 | 135 to 139 | CC(C)NCC(O)COc1ccc(-c2cc3ncccc3c(=O)n2C)cc1 (configuration not stated)
20 | 111 | CN1CC(c2ccc(S(C)(=O)=O)cc2)=C(c2ccc(F)cc2)C1=O
21 | 160 to 162 | CC#CC(Cc1ccccc1)n1nnc2cc3c(cc2c1=O)OC1CCCN1C3=O (configuration not stated)
22 | 95 to 96 | O=CCN1CCc2ccc(Br)cc2C1=O
23 | 98 to 100 | COC(=O)C(C)(C)OCC#Cc1cc(Cl)ccc1NS(=O)(=O)c1ccc(OC)cc1
24 | 94 to 95 | CCOC(=O)CC(=O)c1ccc([N+](=O)[O-])c(OC)c1
25 | 282 to 284 | COc1ccc2cc3c(c(-c4ccc(F)cc4)c2c1)CNC3=O
26 | 110 to 114 | CCOC(=O)c1ccc(NCc2ccccc2)nc1C(=O)OCC
27 | 146 to 147 | COC(=O)c1ccc(NC(=O)Cc2ccc(OC)c(C34CC5CC(CC(C5)C3)C4)c2)cc1
28 | 252 to 254 | CC(=O)Nc1ccc(Oc2ccccc2)c2c(=O)c3ccccc3n(C)c12
29 | 75 to 77 | CCC(=NOC)c1cccc(Oc2nc(OC)cc(OC)n2)c1C(=O)OC
30 | 182 to 184 | COC(=O)C1=C(NC(=O)Nc2ccccc2)CSC1
31 | 94 to 96 | CCCCOC1=C(c2ccccc2)C(CCC(=O)O)OC1=O (configuration not stated)
32 | 90 to 93 | Cc1ccc(NC(=S)NCCCO)c(C)c1
33 | 180 to 182 | CC(Sc1cc2cc(O)ccc2[nH]1)(C(=O)O)c1ccccc1 (configuration not stated)
34 | 132 | CNc1c([N+](=O)[O-])cc(C)cc1[N+](=O)[O-]
35 | 106 to 108 | COc1cccc2c3c(n(C)c12)SCCC3=O
36 | 182 to 184 | Cc1ccccc1C(=O)NC(NC(=O)Nc1cccnc1)C(Cl)(Cl)Cl (configuration not stated)

More lines, now with the values behind:

Row | Compound | melting point [°C]
37 | O=c1[nH]c2ccccc2n1C1CCN(CC(O)COc2ccc(F)cc2)CC1 (configuration not stated) | 175 to 176
38 | O=c1ccn(-c2cccc(C(F)(F)F)c2)nc1-c1nnnn1-c1ccccc1 | 172 to 173
39 | Nc1nc2c(c(N3CCN(Cc4ccccc4)CC3)n1)SCCC2 | 124 to 127
40 | CN1CCC(Oc2ccc(C(=O)NN)cc2)CC1 | 110 to 112
41 | O=c1[nH]nc(-c2ccc(N=Cc3ccc(O)cc3)cc2)c(O)c1O | 233
42 | CC(=O)OC1CCC2(C)C(CCC3=C4C(=O)CC(C(C)CCCC(C)(C)O)C4(C)CCC32)C1 (configuration not stated) | 151 to 152
43 | CN1C(c2ccc(Br)cc2)C2C(=O)N(Cc3ccc4c(c3)OCO4)C(O)C2C1(C)C (configuration not stated) | 158 to 159
44 | CCOC(=O)C=Cc1cn(CCCC2(C)OCCO2)c2ccccc12 | 61 to 62
45 | O=C(NC1=NN(c2ccc(C(=O)C(F)(F)F)cc2)C(c2ccccc2)C1)C(F)(F)F (configuration not stated) | 197 to 198
46 | CCCCCCCCCCCCCCCCCCOc1ccc(C(=O)C(Sc2nnnn2-c2ccccc2)c2ccc([N+](=O)[O-])cc2)cc1 (configuration not stated) | 82 to 95
47 | COc1ccc(Cn2c(NC3CCN(CCNc4ncccn4)CC3)nc3ccccc32)cc1 | 160
48 | NC(=O)C1(c2ccccc2)CCN(CCC2(c3ccc(Cl)c(Cl)c3)CCN(C(=O)c3ccccc3)C2)CC1 (configuration not stated) | 87 to 90
49 | COc1nsc2c1C(=O)CCC2 | 45 to 46
50 | OCC1OC(c2c(Cl)c(Cl)cc3nc(Cl)cn23)C(O)C1O (configuration not stated) | 267 to 268
51 | CC(=O)OC1CSC(Oc2cccc(-c3cnccn3)c2)C(OC(C)=O)C1OC(C)=O (configuration not stated) | 92
52 | COc1ccccc1NC(=O)Nc1nc(Nc2ccccc2-c2ccccc2)nc(N(CCC(=O)O)Cc2ccc(C(F)(F)F)cc2)n1 | 125 to 128
53 | O=C(CCCCCNC(=O)C(c1ccccc1)c1ccccc1)NO | 55 to 56
54 | CCCc1nc2c(N)nc3ccccc3c2n1CC(C)(C)C(=O)N1CCOCC1 | 212 to 214

Row | Compound | melting point [°C]
55 | CC(=O)OC1CSC(Oc2ccncc2)C(OC(C)=O)C1OC(C)=O (configuration not stated) | 152 to 158
56 | COc1c(C)c(N2CCN(c3ccc(C(F)(F)F)cc3)CC2)c(C)c2c1OC(C)(C)C2 | 186 to 187
57 | O=C(O)c1ccccc1-c1n[nH]c(-c2cccc(C(F)(F)F)c2)n1 | 200
58 | N#CCCNC(=O)c1cccc(-c2cncc3cc(Cc4cccc(C(F)(F)F)c4)oc23)c1 | 152 to 154
59 | O=c1oc(-c2cccc(C(F)(F)F)c2)cc(O)c1SCc1ccccc1 | 152 to 153
60 | NCc1ccc2c(c1)ncn2-c1cccc(-c2ccccn2)c1 | 224 to 229
61 | O=C(CO)c1c[nH]c2cc(OCc3ccccc3)ccc12 | 194 to 195
62 | O=C(CC(Cc1ccccc1)C(=O)O)c1cccc(Cl)c1 (configuration not stated) | 85 to 89
63 | CC1(C)Cc2c(N)c(Cl)cc(-c3nc(C4CCN(CCCC#N)CC4)no3)c2O1 | 151
64 | O=C(Nc1ccccc1)C12CC3CC(CC(C3)C1)C2 | 196 to 199
65 | COc1ccc(SC2CC(=O)N2CC(=O)O)cc1 (configuration not stated) | 78 to 79
66 | CCOC(=O)C=C1CSC(=N)N1N | 135 to 137
67 | O=C(Nc1ccc(Oc2ccnc(N3CCCC3)n2)c2ccccc12)c1cc(F)cc(N2CCOCC2)c1 | 205 to 207
68 | CN1CC(C(O)C(O)C(O)CO)OC1=C(C#N)C=C1Nc2ccccc2C1=O (configuration not stated) | 237
69 | Cn1ncc(S(N)(=O)=O)c1C1=NOCCO1 | 126 to 130
70 | O=C1NC(CO)Cc2c[nH]c3cccc1c23 (configuration not stated) | 186 to 187
71 | CC(C)(C)OC(=O)Cc1ccc(O)cc1 | 95 to 96
72 | CCCCCC1OC12CCC(Nc1ncnc(CC)c1Cl)CC2 (configuration not stated) | 41 to 42
